# Reference: patent US20250084128A1, “ANTIVIRAL […]-STAPLED SARS-CoV-2 PEPTIDE-C[…] USES THEREOF” (priority 2021, published 2025)
# System: pseudotyped SARS-CoV-2 virus
# Assay type: cell-based
row,Substance,differential antiviral activity
1,DISGINASVVNIQK8IDRLNEXAKNLNESLIDLQELGK [SEQ ID NO: 11],little to no activity
2,DISGINASVVNIQKEI8RLNEVAXNLNESLIDLQELGK [SEQ ID NO: 13],moderate activity
3,DISGINASVVNIQKEID8LNEVAKXLNESLIDLQELGK [SEQ ID NO: 14],little to no activity
4,DISGINASVVNIQKEIDR8NEVAKNXNESLIDLQELGK [SEQ ID NO: 15],little to no activity
5,DISGINASVVNIQKEIDRL8EVAKNLXESLIDLQELGK [SEQ ID NO: 16],moderate activity
